Source: patent publication US20140350050A1, “PYRIDINE COMPOUNDS AS INHIBITORS OF KINASE” (TELIGENE LTD., priority 2011, published 2014)
Read-outs that look alike come from different tables or passages of the source.

What was measured:
[1] = target: ALK kinase (Homo sapiens, UniProt Q9UM73); assay: ALK kinase assay; format: biochemical
Protocol: An in vitro assay which determines the ability of a test compound to inhibit ALK kinase. a) kinase-tagged T7 phage strains were prepared in an E. coli host derived from the BL21 strain. E. coli were grown to log-phase and infected with T7 phage and incubated with shaking at 32° C. until lysis. The lysates were centrifuged and filtered to remove cell debris. The remaining kinases were produced in HEK-293 cells and subsequently tagged with DNA for qPCR detection. […] The liganded beads were blocked with excess biotin and washed with blocking buffer (SeaBlock (Pierce), 1% BSA, 0.05% Tween 20, 1 mM DTT) to remove unbound ligand and to reduce non-specific binding. […] All reactions were performed in polystyrene 96-well plates in a final volume of 0.135 ml. […] The kinase concentration in the eluates was measured by qPCR. […]
b) An alternative method to conduct the kinase assay with the following condition and procedure: Reagent: Base Reaction buffer; 20 mM Hepes (pH 7.5), 10 mM MgCl2, 1 mM EGTA, 0.02% Brij35, 0.02 mg/ml BSA, 0.1 mM Na3VO4, 2 mM DTT, 1% DMSO.
1. Preparing indicated substrate in freshly prepared Base Reaction Buffer
2. Delivering any required cofactors to the substrate solution above
3. Delivering indicated kinase into the substrate solution and gently mix
4. Delivering compounds in DMSO into the kinase reaction mixture
5. Delivering ^33P-ATP (specific activity 0.01 μCi/μl final) into the reaction mixture to initiate the reaction.
6. Incubating kinase reaction for 120 min. at room temperature
7. Reactions are spotted onto P81 ion exchange paper (Whatman #3698-915)
8. Washing filters extensively in 0.75% Phosphoric acid. […]
c) An alternative method to conduct the kinase assay with the following condition and procedure: The assay was performed using Kinase-Glo Plus luminescence kinase assay kit (Promega). It measures kinase activity by quantitating the amount of ATP remaining in solution following a kinase reaction. The luminescent signal from the assay is correlated with the amount of ATP present and is inversely correlated with the amount of kinase activity.
The compound were diluted in 10% DMSO and 5 μl of the dilution was added to a 50 μl reaction so that the final concentration of DMSO is 1% in all of reactions. All of the enzymatic reactions were conducted at 30° C. for 40 minutes. The 50 μl reaction mixture contains 40 mM Tris, pH 7.4, 10 mM MgCl2, 0.1 mg/ml BSA, 1 mM DTT, 0.2 mg/ml substrate peptide, 10 μM ATP and ALK (Table 2.3.1). After the enzymatic reaction, 50 μl of Kinase-Glo Plus Luminescence kinase assay solution (Promega) was added to each reaction and incubate the plate for 5 minutes at room temperature. Luminescence signal was measured using a BioTek Synergy 2 microplate reader. ALK activity assays were performed in duplicate at each concentration. The luminescence data were analyzed using the computer software, Graphpad Prism. The difference between luminescence intensities in the absence of ALK (Lut) and in the presence of ALK (Luc) was defined as 100% activity (Lut−Luc). Using luminescence signal (Lu) in the presence of the compound, % activity was calculated as % activity={(Lut−Lu)/(Lut−Luc)}×100%, where Lu=the luminescence intensity in the presence of the compound (all percent activities below zero were shown zero in the table). The values of % activity versus a series of compound concentrations were then plotted using non-linear regression analysis of Sigmoidal dose-response curve generated with the equation Y=B+(T−B)/1+10^((Log EC50−X)×Hill Slope), where Y=percent activity, B=minimum percent activity, T=maximum percent activity, X=logarithm of compound and Hill Slope=slope factor or Hill coefficient. The IC50 value was determined by the concentration causing a half-maximal percent activity.

[2] = target: T1, BAF3-EML4-ALK stable cell line (Homo sapiens, UniProt Q9UM73); assay: BAF3-EML4-ALK cell assay (MTT cell proliferation); format: cell-based; details: 72 hours, read-out: BAF3-EML4-ALK Cell (IC50 grading)
T1 construct: fused on or other part: Q9HC35 (Echinoderm microtubule-associated protein-like 4)
Protocol: BAF3-EML4-ALK Cell Assay:
A method of establishing BAF3-EML4-ALK stable cell line: Transfer 5×10^6 BAF3 cells to a new tube, pellet the cells, and remove PBS by aspiration.; Resuspend the cells in 1 ml electroporation buffer, this provides 5×10^6 of cells; Transfer 200 μl of cell suspension to EP tube, add 5 ug DNA, flip and place it on ice for 10 min; Pipet the 200 μl cell suspension into 2 mm electroporation cuvette; Place the cuvette into shockpod, close the lid, and press the PULSE button; Set parameters: Expentional decay pulse: VOL=200 V; CAP=900 uF, RES=1000Ω; Transfer all cells from electroporation cuvette to 6 well plate, adding 2 ml DMEMF12 containing 5 ng/ml IL3, 24 h later, replace the medium with DMEM F12 containing 2 μg/ml blasticidin S and 5 ng/ml IL3, maintain for 3 days; change the medium with DMEM F12 containing 2 ug/ml blasticidin S and 2.5 ng/ml IL3, maintain 3 days; change the medium with DMEM F12 containing 2 ug/Ml blasticidin S, maintain to culture.
MTT Cell proliferation assay: 5×10^3 per well cell with 100 μl medium was seeded in 96-well plate; 24 hours later, 100 μl fresh medium with various concentration of compounds; After the cells were treated by compounds for 72 hours, add 20 μl MTT (5 mg/ml) into each wells; The plate is incubated at 37° C. for 4 hours; Centrifuge the plate at 800 g for 10 mins, Aspirated the medium, add 150 μl DMSO into each well. Shake plates gently for 10 mins, Measure the absorbance at 570 nm on plate reader; IR=(WC−WT)/WC.

Chain of ALK kinase (Q9UM73 19-1620): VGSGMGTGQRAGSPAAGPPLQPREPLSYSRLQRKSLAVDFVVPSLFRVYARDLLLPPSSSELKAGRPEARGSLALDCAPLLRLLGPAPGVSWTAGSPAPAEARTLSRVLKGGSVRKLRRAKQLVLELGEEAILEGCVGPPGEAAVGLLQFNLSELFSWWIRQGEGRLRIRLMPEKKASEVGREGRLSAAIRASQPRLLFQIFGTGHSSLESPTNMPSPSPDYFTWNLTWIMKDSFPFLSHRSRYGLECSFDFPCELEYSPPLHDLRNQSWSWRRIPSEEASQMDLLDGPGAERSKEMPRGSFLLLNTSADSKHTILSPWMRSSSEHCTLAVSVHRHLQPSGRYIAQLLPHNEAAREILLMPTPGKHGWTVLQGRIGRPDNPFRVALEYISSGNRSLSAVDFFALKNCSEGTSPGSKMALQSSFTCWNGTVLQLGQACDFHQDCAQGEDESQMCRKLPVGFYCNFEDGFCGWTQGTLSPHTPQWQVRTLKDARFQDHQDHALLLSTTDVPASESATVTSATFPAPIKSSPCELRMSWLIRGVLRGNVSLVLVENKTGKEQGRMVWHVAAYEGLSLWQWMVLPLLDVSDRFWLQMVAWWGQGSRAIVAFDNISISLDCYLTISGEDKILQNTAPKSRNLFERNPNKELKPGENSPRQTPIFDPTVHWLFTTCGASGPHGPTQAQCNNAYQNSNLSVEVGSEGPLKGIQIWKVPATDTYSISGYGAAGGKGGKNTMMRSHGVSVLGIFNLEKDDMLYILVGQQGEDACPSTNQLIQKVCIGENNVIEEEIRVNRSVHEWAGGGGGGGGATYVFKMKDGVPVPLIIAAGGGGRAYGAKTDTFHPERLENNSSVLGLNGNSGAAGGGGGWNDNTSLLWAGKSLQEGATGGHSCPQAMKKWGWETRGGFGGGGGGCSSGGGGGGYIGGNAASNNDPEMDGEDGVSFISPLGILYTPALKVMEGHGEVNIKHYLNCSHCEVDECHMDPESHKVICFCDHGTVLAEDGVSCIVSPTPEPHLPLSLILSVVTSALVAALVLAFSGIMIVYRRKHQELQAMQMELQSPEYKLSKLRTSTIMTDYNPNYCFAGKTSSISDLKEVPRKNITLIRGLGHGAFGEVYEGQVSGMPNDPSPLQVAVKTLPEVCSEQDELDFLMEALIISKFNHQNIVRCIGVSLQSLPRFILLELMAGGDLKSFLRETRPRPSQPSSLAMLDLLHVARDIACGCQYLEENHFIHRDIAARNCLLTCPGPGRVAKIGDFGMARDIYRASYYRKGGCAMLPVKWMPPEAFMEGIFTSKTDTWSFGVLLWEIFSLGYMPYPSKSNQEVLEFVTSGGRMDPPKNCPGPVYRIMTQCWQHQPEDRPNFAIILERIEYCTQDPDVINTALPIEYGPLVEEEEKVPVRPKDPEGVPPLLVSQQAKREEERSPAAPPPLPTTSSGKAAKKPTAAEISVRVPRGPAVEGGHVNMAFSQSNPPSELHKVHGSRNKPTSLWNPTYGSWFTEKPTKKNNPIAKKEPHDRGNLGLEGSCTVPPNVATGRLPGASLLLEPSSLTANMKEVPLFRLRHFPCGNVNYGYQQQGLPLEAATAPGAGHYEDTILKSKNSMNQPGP
T1 sequence (Q9UM73 whole entry, change not shown, the tested form may be a part): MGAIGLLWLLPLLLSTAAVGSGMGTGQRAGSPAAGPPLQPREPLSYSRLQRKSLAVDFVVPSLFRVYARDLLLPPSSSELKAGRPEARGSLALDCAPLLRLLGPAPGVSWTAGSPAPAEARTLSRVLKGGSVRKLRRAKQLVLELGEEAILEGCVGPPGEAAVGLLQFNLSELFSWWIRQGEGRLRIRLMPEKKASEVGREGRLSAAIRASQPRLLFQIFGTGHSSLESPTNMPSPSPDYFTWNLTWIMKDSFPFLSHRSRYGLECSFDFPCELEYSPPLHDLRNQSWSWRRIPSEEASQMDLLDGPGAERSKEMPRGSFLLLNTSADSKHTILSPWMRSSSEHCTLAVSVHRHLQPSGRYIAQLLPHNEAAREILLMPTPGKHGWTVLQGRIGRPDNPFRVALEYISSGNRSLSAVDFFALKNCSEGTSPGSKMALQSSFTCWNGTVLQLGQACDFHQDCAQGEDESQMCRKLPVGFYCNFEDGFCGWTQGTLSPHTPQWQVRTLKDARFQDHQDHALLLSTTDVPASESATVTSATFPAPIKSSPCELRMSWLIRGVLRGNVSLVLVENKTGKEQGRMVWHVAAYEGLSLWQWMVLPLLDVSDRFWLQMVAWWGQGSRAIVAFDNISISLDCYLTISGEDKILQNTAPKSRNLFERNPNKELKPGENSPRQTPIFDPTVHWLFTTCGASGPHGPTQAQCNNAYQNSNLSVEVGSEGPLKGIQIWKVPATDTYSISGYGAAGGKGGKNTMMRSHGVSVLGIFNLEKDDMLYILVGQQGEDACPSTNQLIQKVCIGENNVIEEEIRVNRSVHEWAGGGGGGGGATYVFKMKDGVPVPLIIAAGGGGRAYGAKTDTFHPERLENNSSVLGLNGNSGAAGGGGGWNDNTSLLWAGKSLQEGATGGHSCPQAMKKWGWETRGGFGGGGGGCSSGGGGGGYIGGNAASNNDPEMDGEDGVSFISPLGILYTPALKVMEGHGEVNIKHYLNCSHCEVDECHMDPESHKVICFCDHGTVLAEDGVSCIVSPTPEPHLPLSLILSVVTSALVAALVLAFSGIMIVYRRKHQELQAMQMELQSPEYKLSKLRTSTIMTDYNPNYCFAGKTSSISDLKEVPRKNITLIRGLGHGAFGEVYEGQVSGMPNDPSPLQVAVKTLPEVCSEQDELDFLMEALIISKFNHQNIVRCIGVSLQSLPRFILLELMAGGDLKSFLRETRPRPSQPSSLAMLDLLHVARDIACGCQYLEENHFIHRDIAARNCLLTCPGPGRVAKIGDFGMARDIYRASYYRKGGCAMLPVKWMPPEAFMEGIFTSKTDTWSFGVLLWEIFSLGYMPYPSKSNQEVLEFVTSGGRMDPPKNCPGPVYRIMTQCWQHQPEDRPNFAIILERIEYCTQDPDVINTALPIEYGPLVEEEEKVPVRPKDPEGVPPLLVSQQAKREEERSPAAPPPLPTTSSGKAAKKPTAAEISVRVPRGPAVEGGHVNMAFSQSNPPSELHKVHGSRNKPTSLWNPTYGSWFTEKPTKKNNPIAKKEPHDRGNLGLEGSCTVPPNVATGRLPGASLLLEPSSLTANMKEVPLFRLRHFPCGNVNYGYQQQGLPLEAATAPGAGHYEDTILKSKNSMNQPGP

[2H]C([2H])([2H])C([2H])([2H])N1CCC(n2cc(-c3cnc(N)c(O[C@H](C)c4c(Cl)ccc(F)c4Cl)c3)cn2)CC1 [Compound 22, (R)-3-(1-(2,6-dichloro-3-fluorophenyl)ethoxy)-5-(1-(1-d5-ethylpiperidin-4-yl)-1H-pyrazol-4-yl)pyridin-2-amine]
IC50 ([1]; ALK kinase assay, read-out: ALK (IC50 grading)): ≤ 100 nM
IC50 ([1]; read-out: IC50 in the ALK kinase assay): 1.35 nM
GI50 [2]: ≤ 100 nM
